Experimental data: patent publication US5726184A, “Tetralin compounds with improved MDR activity” (Vertex Pharmaceuticals Incorporated, priority 1995, dated 1998)
Like-named read-outs stand apart in the source and are kept apart here.

How the values were obtained:
L1210vDOX = assay: Reversal of MDR in L1210vDOX (MDR sensitization assay, doxorubicin with or without MDR inhibitor); format: cell-based, mouse; settings: for IC50: 3 days
HL60/ADR cells = assay: Reversal of MRP-mediated MDR in HL60/ADR cells (doxorubicin with or without MDR inhibitor); format: cell-based; settings: HL60/ADR
Description: We plated HL60/ADR cells in 96 well microtiter plates (4×10^4 cells/well). The cells were then exposed to various concentrations of doxorubicin (50 nM to 10 μM) in the presence or absence of various compounds of this invention at various concentrations (0.5-10 μM). After culturing the cells for 3 days, their viability was quantitated using the XTT dye method to assess mitochondrial function. […] IC50 values are expressed in nM. In all assays the intrinsic antiproliferative or cytotoxicity activity of the MDR inhibitors was also determined for HL60/ADR cells.

[1] = IC50 of doxorubicin in presence of 0.5 μM Cpd, read-out: IC50 DOX + 0.5 μM Cpd
[2] = IC50 of doxorubicin in presence of 1.0 μM Cpd, read-out: IC50 DOX + 1.0 μM Cpd
[3] = IC50 of doxorubicin in presence of 2.5 μM Cpd, read-out: IC50 DOX + 2.5 μM Cpd

Compound | MDR ratio (IC50 Dox / IC50 Dox+Inhibitor) (L1210vDOX; MDR ratio at 0.5 μM Cpd) | MDR ratio (IC50 Dox / IC50 Dox+Inhibitor) (L1210vDOX; MDR ratio at 1.0 μM Cpd) | MDR ratio (IC50 Dox / IC50 Dox+Inhibitor) (L1210vDOX; MDR ratio at 2.5 μM Cpd) | IC50 (L1210vDOX; [1]) [nM] | IC50 (L1210vDOX; [2]) [nM] | IC50 (L1210vDOX; [3]) [nM] | Fold reversal (IC50 doxorubicin alone / IC50 doxorubicin + MDR inhibitor) (HL60/ADR cells; ratio at 0.5 μM Cpd) | Fold reversal (IC50 doxorubicin alone / IC50 doxorubicin + MDR inhibitor) (HL60/ADR cells; ratio at 1.0 μM Cpd) | Fold reversal (IC50 doxorubicin alone / IC50 doxorubicin + MDR inhibitor) (HL60/ADR cells; ratio at 2.5 μM Cpd)
CCCOc1cc2c(c(OCCC)c1C)CC[C@H](Cc1cccnc1)[C@H]2OC(=O)[C@@H]1CCCCN1C(=O)C(=O)c1cc(OC)c(OC)c(OC)c1 (single isomer, unassigned) [Compound 30A] | 1.4 | 2.3 | > 7.0 | – | – | – | – | – | –
COc1cc(C(=O)C(=O)N(C)[C@@H](Cc2ccccc2)C(=O)O[C@@H]2CCCc3ccc(OCc4ccncc4)cc32)cc(OC)c1OC [Compound 20, 3-Benzyl-2(S)-(methyl-(2-oxo-2-(3,4,5-trimethoxyphenyl)-acetyl)amino) propanoic acid ((7-pyridin-4-ylmethoxy)-1,2,3,4-tetrahydronaphthalen-1(R)-yl) ester] | 3.0 | 7.0 | 10.5 | – | – | – | – | – | –
CCCOc1cc2c(c(OCCC)c1C)CC[C@@H](Cc1cccnc1)[C@@H]2OC(=O)[C@@H]1CCCCN1C(=O)C(=O)c1cc(OC)c(OC)c(OC)c1 (single isomer, unassigned) [Compound 30B] | 1.4 | 2.0 | > 7.0 | – | – | – | – | – | –
COc1cc(C(=O)C(=O)N2Cc3ccccc3C[C@H]2C(=O)O[C@H]2CCCc3ccc(OCc4ccncc4)cc32)cc(OC)c1OC [Compound 18, 2-(2-Oxo-2-(3,4,5-trimethoxyphenyl)-acetyl)-1,2,3,4-tetrahydroisoquinoline-3(S)-carboxylic acid 2-((7-pyridin-4-ylmethoxy)-1,2,3,4-tetrahydronaphthalen-1(S)-yl) ester] | 3.3 | 6.7 | 10.0 | – | – | – | – | – | –
COc1cc(C(=O)C(=O)N2CCCC[C@H]2C(=O)O[C@@H]2CCCc3ccc(OCc4ccncc4)cc32)cc(OC)c1OC [Compound 7, 1-(2 -Oxo-2(3,4,5-trimethoxyphenyl)-acetyl)-piperidine-2(S)-carboxylic acid 2-((7-pyridin-4-ylmethoxy)-1,2,3,4-tetrahydronaphthalen-1(R)-yl) ester] | 23.1 | 4.8 | 9.5 | – | – | – | – | – | –
COc1cc(C(=O)C(=O)N2CCCC[C@H]2C(=O)N[C@H]2CCCc3ccc(OCc4ccncc4)cc32)cc(OC)c1OC [Compound 11B, 1-(2-Oxo-2-(3,4,5-trimethoxyphenyl)-acetyl)-piperidine-2(S)-carboxylic acid 2-((7-pyridin-4-ylmethoxy)-1,2,3,4-tetrahydronaphthalen-1(S)-yl) amide] | 1.8 | 2.2 | 10.0 | 400 | 325 | 70 | – | – | –
CCCOc1cc2c(c(OCCC)c1C)CC[C@@H](Cc1cccnc1)[C@H]2OC(=O)[C@@H]1CCCCN1C(=O)C(=O)c1cc(OC)c(OC)c(OC)c1 (single isomer, unassigned) [Compound 29B] | 1.8 | 3.7 | > 7.0 | – | – | – | – | – | –
COc1cc(C(=O)C(=O)N(C)[C@@H](Cc2ccccc2)C(=O)O[C@H]2CCCc3ccc(OCc4ccncc4)cc32)cc(OC)c1OC [Compound 21] | 5.4 | 6.8 | 8.7 | – | – | – | 3.5 | 3.2 | 23
COc1cc(C(=O)C(=O)N2CCCC[C@H]2C(=O)OC2CCCc3c(OCc4ccncc4)cccc32)cc(OC)c1OC (stereo partly drawn) [Compound 9, 1-(2-Oxo-2-(3,4,5-trimethoxyphenyl)-acetyl)-piperidine-2(S)-carboxylic acid 2-((5-pyridin-4-ylmethoxy)-1,2,3,4-tetrahydronaphthalen-1-yl) ester] | 6.4 | 13.7 | 22.8 | 750 | 350 | 175 | – | – | –
